In US7767665B2, “1,3-benzothiazinone derivatives and use thereof” (Takeda Pharmaceutical Company Limited, priority 2001, dated 2010):

Legend:
[1] = system: primary heart muscle cells from newborn rats; assay: Inhibitory activity on heart muscle cell apoptosis (serum-free culture, viable cell number by WST-8); format: cell-based, Wister rats; conditions: Rattus norvegicus, 96 h; mean of three independent experiments; concentration required to increase the mean viable cell number by 50% as compared with that in the absence of test compounds; serum-free Medium 199, 4 days
From the text: Inhibitory Activity on Heart Muscle Cell Apoptosis
Newborn rats (within 1 day afterbirth) were obtained from pregnant Wister rats purchased from Charles River, anesthetized under ether, and sterilized with 70% ethanol, and then their hearts were excised with tweezers. The excised hearts were washed with a phosphate-buffered physiological saline (T900; Takara) and cut into pieces with surgical scissors. These tissue pieces were washed 4 to 5 times with a phosphate-buffered physiological saline to remove a majority of blood-derived non-heart muscle cells. To the tissue pieces derived from 10 newborns, 5 ml of enzyme solution (1.25 mg trypsin (Difco) and 0.25 mg collagenase (Sigma) per ml of phosphate-buffered saline (PBS)) was added and the mixture was stirred with a stirrer at 37° C. for 15 minutes. Another 2.5 ml enzyme solution was then added twice repeatedly at a 15-minutes interval. Then, Medium 199 (Gibco) containing 10% fetal calf serum (Biowiker) was added in a half volume of the enzyme solution to terminate the enzyme reaction. The cells were filtered through a Cell Strainer (Falcon) and then centrifuged at 400×g for 5 minutes, whereby the cells were collected.
The cells thus collected from 10 newborns were suspended in 50 ml Medium 199 containing 10% fetal calf serum, plated onto 100 mm Petri dishes (Iwaki) in a volume of 10 ml/dish and cultured for 1 hour in a CO2 incubator set at 5% CO2 and 37° C. The cells were then recovered, filtered through a Cell Strainer and centrifuged at 400×g for 5 minutes to collect the primary heart muscle cells derived from newborn rats.
Then, the heart muscle cells from 10 newborn rats were suspended in 2 ml low-isotonic solution (prepared by dissolving 8.29 g NH4Cl, 1.0 g KHCO3, 37 mg EDTA/2Na (ethylenediaminetetraacetic acid disodium) (Dojindo) in 1 L of water) and left for 3 minutes to disrupt erythrocytes. After 10 ml Medium 199 containing 10% fetal calf serum was added thereto, the primary heart muscle cells from newborn rats were collected by centrifugation at 400×g for 5 minutes. The cells were suspended in Medium 199 containing 10% fetal calf serum and then filtered through a cell strainer. After 0.3% trypan blue was added to, and mildly mixed with, an aliquot of the resulting cell suspension, the number of heart muscle cells was counted on an erythrocyte counting plate.
The primary heart muscle cells from newborn rats were suspended at a density of 3×10^6 cells/ml in Medium 199 containing 10% fetal calf serum, put onto a 96-well plate in a volume of 0.1 ml/well, and then cultured in a CO2 incubator set at 5% CO2 and 37° C. After the plate was stirred with a micromixer (Taiyo Kagaku Kogyo), the medium was exchanged 3 times with serum-free Medium 199, and then test compounds were added thereto. The cells were cultured for additional 4 days to induce apoptosis. Then, fetal calf serum was added thereto at a concentration of 10%, and the cells were further cultured for about 17 hours in a CO2 incubator set at 5% CO2 and 37° C. Finally, the number of viable cells was determined with Cell Counting Kit (Dojindo) using WST-8 (2-(2-methoxy-4-nitrophenyl)-3-(4-nitrophenyl)-5-(2,4-disulfophenyl)-2H-tetrazolium, monosodium salt) as the coloring substrate to determine the inhibition of the heart muscle cell apoptosis.
The above-mentioned experiment was triplicated in an independent manner.
The Mean minimal effective concentration (±SD) was shown for each test compound (Compounds 1 to 5 obtained in Reference Examples) in Table 1. In Table 1, the minimal effective concentration is defined as the concentration required to increase the mean viable cell number by 50% as compared with that in the absence of test compounds.

Row | melting point | Compound | minimal effective concentration [1]
1 | 234 to 235.4 °C | CN(C(=O)c1ccccc1)c1cccc(-c2nc(=O)c3ccccc3s2)n1 [Example 113, N-Methyl-N-[6-(4-oxo-4H-1,3-benzothiazin-2-yl)-2-pyridyl]benzamide] | 0.022 µM
2 | 184.4 to 185.8 °C | CN(C(=O)C1CCCCC1)c1cccc(-c2nc(=O)c3ccccc3s2)n1 [Example 115, N-methyl-N-[6-(4-oxo-4H-1,3-benzothiazin-2-yl)-2-pyridyl]cyclohexanecarboxamide] | 0.052 µM
3 | 161.3 to 162 °C | CCSc1cccc(-c2nc(=O)c3ccccc3s2)n1 [Example 126, 2-[6-(Ethylthio)-2-pyridyl]-4H-1,3-benzothiazine-4-one] | 0.032 µM
4 | 185.4 to 185.8 °C | CC(C)Sc1cccc(-c2nc(=O)c3ccccc3s2)n1 [Example 127, 2-[6-(Isopropylthio)-2-pyridyl]-4H-1,3-benzothiazine-4-one] | 0.04 µM
5 | 152.9 to 153.8 °C | CC(C)(C)Sc1cccc(-c2nc(=O)c3ccccc3s2)n1 [Example 128, 2-[6-(tert-Butylthio)-2-pyridyl]-4H-1,3-benzothiazine-4-one] | 0.081 µM
6 | 154.8 °C (dec.) | CN(C)CCSc1cccc(-c2nc(=O)c3ccccc3s2)n1 [Example 133, 2-{[6-[2-(N,N-Dimethylamino)ethyl]thio]-2-pyridyl}-4H-1,3-benzothiazine-4-one] | 0.06 µM
7 | 179.5 to 180 °C | CCOc1cccc(-c2nc(=O)c3ccccc3s2)n1 [Example 134, 2-(6-Ethoxy-2-pyridyl)-4H-1,3-benzothiazine-4-one] | 0.095 µM
